Experimental findings from ChEMBL document CHEMBL3351753, “Inhibitory effects of ginseng sapogenins on the proliferation of triple negative breast cancer MDA-MB-231 cells” (Bioorg Med Chem Lett, 2014) are described below.

Molecules are shown by their SMILES. Calls of active or inactive are those of the source. The calls are words filed in the database; no cut-off is given here.

Test [1] relates to MDA-MB-231. The test is described as follows: Antiproliferative activity against human MDA-MB-231 cells after 4 hrs by MTT assay. In kind it is functional, cell-based. As to conditions: MDA-MB-231, 4 h.
For test [2], the system named is MDA-MB-231. The test can be described thus: Induction of apoptosis in human MDA-MB-231 cells assessed as increase in expression of cleaved caspase 3 at 2.5 to 5.8 uM after 24 hrs by SDS-polyactylamide gel electrophoresis. In kind it is functional, cell-based.
In test [3] the test system is MDA-MB-231. The test is described as follows: Induction of apoptosis in human MDA-MB-231 cells assessed as decrease in expression of full-length BID at 2.5 to 5.8 uM after 24 hrs by SDS-polyactylamide gel electrophoresis. In kind it is functional, cell-based.
The subject of test [4] is MDA-MB-231. The test is described as follows: Induction of apoptosis in human MDA-MB-231 cells assessed as increase in expression of cleaved PARP at 2.5 to 5.8 uM after 24 hrs by SDS-polyactylamide gel electrophoresis. In kind it is functional, cell-based.
Test [5] has as its system MDA-MB-231. The test can be described thus: Induction of apoptosis in human MDA-MB-231 cells assessed as increase in cells at early apoptotic phase at 2.5 uM after 24 hrs by annexin-V-FITC/propidium iodide staining- based flow cytometric analysis (reference value: 4.76%). In kind it is functional. On the technique in general: In flow cytometry, cells or beads pass a laser one at a time.

Test [6] relates to MDA-MB-231. The test is described as follows: Induction of apoptosis in human MDA-MB-231 cells assessed as increase in expression of cleaved caspase 8 at 2.5 to 5.8 uM after 24 hrs by SDS-polyactylamide gel electrophoresis. In kind it is functional, cell-based.
The test system of another test is LLC-PK1. The test is described as follows: Cytotoxicity against pig LLC-PK1 cells after 4 hrs by MTT assay. In kind it is cell-based. As to conditions: Sus scrofa, LLC-PK1, 4 h.

What is called IC50 is the concentration that inhibits the measured activity by half. The low end stands for greater potency, the high end for weaker potency. On to `CC(C)=CCC[C@](C)(O)[C@H]1CC[C@]2(C)[C@@H]1[C@H](O)C[C@@H]1[C@@]3(C)CC[C@H](O)C(C)(C)[C@@H]3[C@@H](O)C[C@]12C`, for which the IC50 with MDA-MB-231 [1] stood at 12.2 µM. On the same count and under the same terms, the value for `CC(C)CCC[C@](C)(O)[C@H]1CC[C@]2(C)[C@@H]1[C@H](O)C[C@@H]1[C@@]3(C)CC[C@H](O)C(C)(C)[C@@H]3CC[C@]12C` was 27 µM. As for `COc1cccc2c1C(=O)c1c(O)c3c(c(O)c1C2=O)C[C@@](O)(C(=O)CO)C[C@@H]3O[C@H]1C[C@H](N)[C@H](O)[C@H](C)O1` [DOXORUBICIN], in the test with MDA-MB-231 [1], the IC50 came out at 2.9 µM.

With `COc1cc(/C=C/C(=O)CC(=O)/C=C/c2ccc(O)c(OC)c2)ccc1O` [CURCUMIN], in the test with MDA-MB-231 [1], the IC50 amounted to 34.4 µM. In the case of `CC(C)=CCC[C@](C)(O)[C@H]1CC[C@]2(C)[C@@H]1[C@H](O)C[C@@H]1[C@@]3(C)CC[C@H](O)C(C)(C)[C@@H]3CC[C@]12C`, the outcome with MDA-MB-231 [2], in the test on MDA-MB-231 [3], in the test on MDA-MB-231 [4] and in the test on MDA-MB-231 [6] was Active. The Activity with MDA-MB-231 [5] was determined as 8.18%. The IC50 in the test on MDA-MB-231 [1] came to 5.9 µM; in the test with LLC-PK1, 36.7 µM. `CC(C)CCC[C@](C)(O)[C@H]1CC[C@]2(C)[C@@H]1[C@H](O)C[C@@H]1[C@@]3(C)CC[C@H](O)C(C)(C)[C@@H]3[C@@H](O)C[C@]12C` returned an IC50 in the test with MDA-MB-231 [1] of 25.8 µM.

In the test on MDA-MB-231 [1], `CC(=O)O[C@H]1C(=O)[C@@]2(C)[C@H]([C@H](OC(=O)c3ccccc3)[C@]3(O)C[C@H](OC(=O)[C@H](O)[C@@H](NC(=O)c4ccccc4)c4ccccc4)C(C)=C1C3(C)C)[C@]1(OC(C)=O)CO[C@@H]1C[C@@H]2O` [PACLITAXEL] had a half-maximal inhibitory concentration (IC50) of 6.2 µM. Still for that read-out and setting: under `O=C(O[C@@H]1Cc2c(O)cc(O)cc2O[C@@H]1c1cc(O)c(O)c(O)c1)c1cc(O)c(O)c(O)c1` [EPIGALOCATECHIN GALLATE] stands 76.1 µM.
